Results published in US11214803B2, “Modulators of YAP1 expression” (Ionis Pharmaceuticals, Inc., priority 2019, dated 2022).
Strand notation (5' to 3'): a small letter for the sugar, then the base; units joined by * are phosphorothioate-linked, units joined directly phosphodiester-linked; [ ] holds rarer units or linkages, { } end groups; capitals alone tell only the bases. k = constrained ethyl (cEt); [5mC] = 5-methylcytosine; d = 2'-deoxy (DNA)

Tested on: Yap1 mRNA
Experiment: Dose-dependent inhibition of human Yap1 in A-431 cells (Example 8, 10,000 cells per well, RTS4814)
Format: cell-based
Conditions: free uptake, approximately 48 hours, RTS4814; for Yap1 mRNA, % UTC: A-431 cells, 10,000 cells per well; for IC50: A-431 cells, linear regression on log/linear plot
Procedure: Modified oligonucleotides described in the studies above were tested at various doses in A-431 cells. Cultured A-431 cells at a density of 10,000 cells per well were treated using free uptake with modified oligonucleotides diluted to concentrations described in the tables below. After approximately 48 hours, Yap1 mRNA levels were measured as previously described using the Human Yap1 primer-probe set RTS4814. Yap1 mRNA levels were normalized to total RNA content, as measured by RIBOGREEN®. Results are presented in the tables below as percent control of the amount of Yap1 mRNA relative to untreated control cells (% UTC). IC50s were calculated using a linear regression on a log/linear plot of the data in excel.

Substance | Yap1 mRNA, % UTC (31.3 nM) [% UTC] | Yap1 mRNA, % UTC (125.0 nM) [% UTC] | Yap1 mRNA, % UTC (500.0 nM) [% UTC] | Yap1 mRNA, % UTC (2000.00 nM) [% UTC] | IC50 [nM]
1075465 (antisense kG*kA*kT*dT*dT*dA*dT*dT*dG*dA*dA*d[5mC]*dT*kG*kA*kG) [compound 1075465] | 75 | 35 | 14 | 9 | 100
1075048 (antisense kG*kT*kA*dA*dA*dA*dT*dT*dA*dG*dA*d[5mC]*dT*k[5mC]*k[5mC]*k[5mC]) [compound 1075048] | 76 | 42 | 13 | 5 | 100
1074852 (kA*kA*kT*dT*dG*dT*dT*dA*dT*dG*dA*dT*dA*kG*kG*k[5mC]; antisense) [compound 1074852] | 36 | 11 | 4 | 4 | < 20
1075047 (antisense kT*kA*kA*dA*dA*dT*dT*dA*dG*dA*d[5mC]*dT*d[5mC]*k[5mC]*k[5mC]*k[5mC]) [compound 1075047] | 80 | 63 | 27 | 10 | 200
1074313 (antisense kT*kG*kA*dT*dA*dT*dT*d[5mC]*d[5mC]*dG*d[5mC]*dA*dT*kT*kG*k[5mC]) [compound 1074313] | 56 | 21 | 9 | 5 | < 20
1076291 (kG*kA*kT*dT*dA*dA*dT*dG*dG*dT*dG*dG*d[5mC]*kA*kT*kT; antisense) [compound 1076291] | 75 | 26 | 8 | 5 | 100
1076486 (kG*kA*kA*dA*d[5mC]*dG*dA*dA*dA*d[5mC]*dG*dG*dG*kA*kA*kA; antisense) [compound 1076486] | 84 | 45 | 16 | 6 | 100
1075689 (k[5mC]*kA*kA*d[5mC]*dT*dA*dT*dA*d[5mC]*dA*dA*dG*dG*k[5mC]*kA*kA; antisense) [compound 1075689] | 97 | 59 | 19 | 8 | 200
1074628 (DNA kG*k[5mC]*k[5mC]*dT*dG*dT*dT*dA*dT*dG*dA*dA*d[5mC]*k[5mC]*k[5mC]*kT) [compound 1074628] | 29 | 13 | 7 | 6 | < 20
1076549 (kG*kT*kG*d[5mC]*dA*dA*dA*dA*dT*dA*d[5mC]*d[5mC]*dT*kT*kT*kG; antisense) [compound 1076549] | 53 | 24 | 10 | 6 | < 20
1074758 (k[5mC]*kA*kG*dT*dT*dA*dA*dG*d[5mC]*dA*d[5mC]*dT*dT*kT*kT*kA; antisense) [compound 1074758] | 74 | 23 | 8 | 5 | 100
1074537 (k[5mC]*kA*kG*dT*dA*dA*dT*dA*dG*d[5mC]*dT*d[5mC]*dT*kT*kT*k[5mC]; antisense) [compound 1074537] | 47 | 21 | 6 | 4 | < 20
1075457 (antisense kA*kG*kT*dA*dA*dT*dA*dT*dG*dT*dA*d[5mC]*dA*kT*kG*kG) [compound 1075457] | 52 | 21 | 8 | 6 | < 20
1074409 (kG*kG*kA*dT*dT*dA*dA*dA*dG*dT*dA*dT*d[5mC]*kT*kT*kG; antisense) [compound 1074409] | 60 | 30 | 13 | 7 | 40
1074851 (kA*kT*kT*dG*dT*dT*dA*dT*dG*dA*dT*dA*dG*kG*k[5mC]*kA; antisense) [compound 1074851] | 51 | 19 | 9 | 7 | < 20
1075146 (kG*kT*kA*dT*dT*dA*dA*dG*dG*dG*dA*dT*dT*kT*kT*k[5mC]; antisense) [compound 1075146] | 67 | 38 | 16 | 8 | 100
1075243 (k[5mC]*kT*kT*dA*dG*dT*dA*dA*dG*dA*dA*dT*dT*kG*kT*k[5mC]; antisense) [compound 1075243] | 50 | 18 | 7 | 5 | < 20
1075112 (kA*kT*kA*dT*dA*dG*dG*dA*dA*dT*dA*dT*dG*kG*kG*kT; antisense) [compound 1075112] | 87 | 36 | 13 | 7 | 100
1076295 (kG*kT*kA*dT*dA*dT*dT*dA*dG*dT*dG*d[5mC]*d[5mC]*k[5mC]*k[5mC]*k[5mC]; antisense) [compound 1076295] | 55 | 17 | 5 | 3 | < 20
1076070 (kA*kT*kT*dA*dG*dT*dA*dA*dT*dG*d[5mC]*dA*d[5mC]*kA*kG*kG; antisense) [compound 1076070] | 55 | 17 | 8 | 6 | < 20
1074593 (DNA kA*kG*kG*dA*dG*d[5mC]*dA*dA*dG*dT*d[5mC]*dT*dT*kG*kT*kA) [compound 1074593] | 50 | 20 | 9 | 8 | < 20
1076491 (kA*kG*k[5mC]*d[5mC]*dA*dA*dA*dA*dT*dA*dG*dG*dT*kG*kA*kG; antisense) [compound 1076491] | 81 | 45 | 21 | 10 | 100
1076449 (k[5mC]*k[5mC]*kT*dT*dA*dT*dA*dA*dT*dG*d[5mC]*dA*dA*kT*k[5mC]*k[5mC]; antisense) [compound 1076449] | 44 | 8 | 3 | 2 | < 20
1075748 (kG*kT*kA*dA*dA*dT*d[5mC]*dA*dA*dG*dT*dT*dG*k[5mC]*kA*kT; antisense) [compound 1075748] | 81 | 36 | 12 | 7 | 100
1076067 (kG*k[5mC]*kA*dT*dA*dT*dA*dA*dG*dA*dT*dG*dT*kT*kT*kG; antisense) [compound 1076067] | 45 | 13 | 5 | 4 | < 20
1075808 (kG*k[5mC]*kA*dA*dT*dA*dG*dA*dG*dT*dA*dA*d[5mC]*k[5mC]*kA*kG; antisense) [compound 1075808] | 38 | 9 | 4 | 4 | < 20
1076003 (kA*kA*kT*dT*dT*dA*dA*dT*dG*dG*d[5mC]*dT*dT*kG*k[5mC]*kA; antisense) [compound 1076003] | 60 | 28 | 17 | 11 | 40
1074443 (kT*k[5mC]*kA*dG*dA*d[5mC]*d[5mC]*dA*dG*dT*dA*dA*dA*kT*k[5mC]*kA; antisense) [compound 1074443] | 69 | 35 | 14 | 8 | 100
1076456 (k[5mC]*kT*kT*dT*dA*dA*dA*dG*dT*dG*dT*dA*dT*kG*kT*k[5mC]) [compound 1076456] | 43 | 14 | 5 | 3 | < 20
1075819 (kG*kT*kA*dT*dA*dT*d[5mC]*d[5mC]*dG*dT*dT*d[5mC]*dT*k[5mC]*kA*kT; antisense) [compound 1075819] | 48 | 18 | 7 | 5 | < 20
